Structures can show the parent of a compound that is named as a salt.
Biological target: T1, epithelial sodium channel (ENaC) (Homo sapiens, UniProt P37088+P51168+P51170)
T1 construct: host or cells: primary human bronchial epithelial cells (HBECs), differentiated at the air-liquid interface
T1 sequence (P37088 1-669): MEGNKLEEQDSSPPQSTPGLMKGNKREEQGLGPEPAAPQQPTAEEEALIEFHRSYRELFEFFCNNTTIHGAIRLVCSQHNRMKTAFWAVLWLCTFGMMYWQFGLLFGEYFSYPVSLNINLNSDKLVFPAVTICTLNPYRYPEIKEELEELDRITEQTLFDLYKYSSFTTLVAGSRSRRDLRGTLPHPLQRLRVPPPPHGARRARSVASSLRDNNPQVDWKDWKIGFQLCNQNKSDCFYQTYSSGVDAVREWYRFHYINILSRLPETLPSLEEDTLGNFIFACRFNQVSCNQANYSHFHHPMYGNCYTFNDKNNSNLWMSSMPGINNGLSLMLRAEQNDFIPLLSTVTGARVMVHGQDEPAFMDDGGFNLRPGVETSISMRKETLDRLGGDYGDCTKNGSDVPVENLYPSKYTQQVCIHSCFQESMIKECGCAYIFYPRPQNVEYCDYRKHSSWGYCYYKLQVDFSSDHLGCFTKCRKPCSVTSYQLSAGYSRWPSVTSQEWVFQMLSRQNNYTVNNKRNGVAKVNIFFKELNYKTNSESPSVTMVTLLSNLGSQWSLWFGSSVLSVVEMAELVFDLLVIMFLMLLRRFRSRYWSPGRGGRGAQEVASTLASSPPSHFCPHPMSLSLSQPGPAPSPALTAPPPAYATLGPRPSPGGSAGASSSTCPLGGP
T1 sequence (P51168 1-640): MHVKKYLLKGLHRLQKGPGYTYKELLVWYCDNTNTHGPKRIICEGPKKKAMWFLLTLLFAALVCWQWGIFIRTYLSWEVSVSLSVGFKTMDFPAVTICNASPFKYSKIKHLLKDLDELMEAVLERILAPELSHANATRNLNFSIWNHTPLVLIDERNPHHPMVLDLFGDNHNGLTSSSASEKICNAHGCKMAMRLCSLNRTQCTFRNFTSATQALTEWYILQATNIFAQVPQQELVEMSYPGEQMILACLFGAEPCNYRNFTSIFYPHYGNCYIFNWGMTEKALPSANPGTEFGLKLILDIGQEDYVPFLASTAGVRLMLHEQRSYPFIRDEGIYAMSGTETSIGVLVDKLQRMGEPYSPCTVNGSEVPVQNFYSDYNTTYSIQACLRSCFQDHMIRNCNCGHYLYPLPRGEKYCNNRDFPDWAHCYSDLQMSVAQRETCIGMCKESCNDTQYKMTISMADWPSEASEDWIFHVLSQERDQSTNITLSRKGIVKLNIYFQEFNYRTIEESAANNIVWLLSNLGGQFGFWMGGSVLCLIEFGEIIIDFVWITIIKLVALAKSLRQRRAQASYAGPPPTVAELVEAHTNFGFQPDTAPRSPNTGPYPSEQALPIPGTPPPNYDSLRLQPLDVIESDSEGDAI
T1 sequence (P51170 1-649): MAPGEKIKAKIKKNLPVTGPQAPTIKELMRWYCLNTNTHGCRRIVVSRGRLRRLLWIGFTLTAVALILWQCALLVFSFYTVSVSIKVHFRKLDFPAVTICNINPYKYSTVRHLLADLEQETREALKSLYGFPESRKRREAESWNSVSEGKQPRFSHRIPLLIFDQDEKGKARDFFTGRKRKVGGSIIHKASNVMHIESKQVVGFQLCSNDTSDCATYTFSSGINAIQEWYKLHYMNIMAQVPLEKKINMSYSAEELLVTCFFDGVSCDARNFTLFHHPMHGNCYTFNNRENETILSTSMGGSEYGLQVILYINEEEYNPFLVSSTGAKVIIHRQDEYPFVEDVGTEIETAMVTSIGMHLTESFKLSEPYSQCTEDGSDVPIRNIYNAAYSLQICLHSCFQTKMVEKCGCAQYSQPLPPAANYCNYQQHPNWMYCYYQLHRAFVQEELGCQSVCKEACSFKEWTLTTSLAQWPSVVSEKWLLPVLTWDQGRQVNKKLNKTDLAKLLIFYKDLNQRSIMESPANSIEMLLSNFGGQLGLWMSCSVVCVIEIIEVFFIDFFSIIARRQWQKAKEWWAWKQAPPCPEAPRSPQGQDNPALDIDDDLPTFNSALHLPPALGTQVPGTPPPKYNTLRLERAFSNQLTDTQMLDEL
Assay: Short circuit current (ISC) measurements in human bronchial epithelial cells, inhibition of amiloride-sensitive ISC
Format: cell-based
Conditions: inhibition of the amiloride-sensitive ISC; HBECs cultured at air-liquid interface, Ussing chamber, compound added to apical chamber
Method: Compounds of formula (I), hereinafter referred to alternatively as “agents of the invention”, are useful as pharmaceuticals. In particular, the compounds have good ENaC blocker activity and may be tested in the following assays.
Human Bronchial Epithelial cells (HBECs) (Cambrex) were cultured under air-liquid interface conditions to provide a well differentiated mucociliary phenotype.
HBECs were cultured using a modification of the method described by Gray and colleagues (Gray et al., 1996). Cells were seeded in plastic T-162 flasks and were grown in bronchial epithelial cell growth medium (BEGM; Cambrex) supplemented with bovine pituitary extract (52 μg/mL), hydrocortisone (0.5 μg/mL), human recombinant epidermal growth factor (0.5 ng/mL), epinephrine (0.5 μg/mL), transferrin (10 μg/mL), insulin (5 μg/mL), retinoic acid (0.1 μg/mL), triiodothyronine ([…]), gentamycin (50 μg/mL) and amphotericin B (50 ng/mL). Medium was changed every 48 hours until cells were 90% confluent. Cells were then passaged and seeded (8.25×10^5 cells/insert) on polycarbonate Snapwell inserts (Costar) in differentiation media containing 50% DMEM in BEGM with the same supplements as above but without triiodothyronine and a final retinoic acid concentration of 50 nM (all-trans retinoic acid). Cells were maintained submerged for the first 7 days in culture, after which time they were exposed to an apical air interface for the remainder of the culture period. At this time, media was changed to DMEM:F12 media containing 2% v/v Ultroser G for the remainder of culture. Amphotericin B was removed from all media 3 feeds prior to use in the Ussing Chambers. Cells were used between days 7 and 21 after establishment of the apical-air interface. At all stages of culture, cells were maintained at 37° C. in 5% CO2 in an air incubator.
Snapwell inserts were mounted in Vertical Diffusion Chambers (Costar) and were bathed with continuously gassed Ringer solution (5% CO2 in O2; pH 7.4) maintained at 37° C. containing (in mM): 120 NaCl, 25 NaHCO3, 3.3 KH2PO4, 0.8 K2HPO4, 1.2 CaCl2, 1.2 MgCl2, and 10 glucose. The solution osmolarity was between 280 and 300 mOsmol/kg H2O for all physiological salt solutions used. Cells were voltage clamped to 0 mV (model EVC4000; WPI). RT was measured by applying a 1- or 2-mV pulse at 30-s intervals and calculating RT by Ohm's law. Data were recorded using a PowerLab workstation (ADInstruments).
Test compounds were prepared as a 10 mM stock solution in DMSO (95%). Serial 3-fold dilutions were freshly prepared in an appropriate vehicle (distilled H2O or Ringers solution). The initial concentration was added to the apical chamber as a 1000× concentrate in 5 μL, resulting in a final 1× concentration the 5 mL volume of the Ussing chamber. Subsequent additions of compound were added in a 3.3 μL volume of the 1000× serially diluted stock solution. At the completion of the concentration-response experiment, amiloride (10 μM) was added into the apical chamber to enable the total amiloride-sensitive current to be measured. An amiloride control IC50 was established at the start of each experiment.
Results are expressed as the mean % inhibition of the amiloride-sensitive ISC. Concentration-response curves were plotted and IC50 values generated using GraphPad Prism 3.02. Cell inserts were typically run in duplicate and the IC50 calculated on the mean % inhibition data.

IC50 [nM]	SMILES
4	CCC[C@@H](CNC(=O)c1nc(Cl)c(N)nc1N)[N+](C)(C)CCCc1ccc(OC)cc1 [Example 120, ((S)-1-{[(3,5-Diamino-6-chloro-pyrazine-2-carbonyl)-amino]-methyl}-butyl)-[3-(4-methoxy-phenyl)-propyl]-dimethyl-ammonium trifluoroacetate]
10	CCC[C@@H](CNC(=O)c1nc(Cl)c(N)nc1N)[N+](C)(C)CCCc1ccc(O)cc1 [Example 121, ((S)-1-{[(3,5-Diamino-6-chloro-pyrazine-2-carbonyl)-amino]-methyl}-butyl)-[3-(4-hydroxy-phenyl)-propyl]-dimethyl-ammonium trifluoroacetate]
240	C[N+](CCCc1ccc(OCC(O)CO)cc1)(CCCc1ccc(OCC(O)CO)cc1)CCNC(=O)c1nc(Cl)c(N)nc1N (stereo not drawn) [Example 125, {2-[(3,5-Diamino-6-chloro-pyrazine-2-carbonyl)-amino]-ethyl}-bis-{3-[4-(2,3-dihydroxy-propoxy)-phenyl]-propyl}-methyl-ammonium trifluoroacetate]
6520	C[N+](C)(CCCc1ccc(OCC(=O)O)cc1)CCNC(=O)c1nc(Cl)c(N)nc1N [Example 133, [3-(4-Carboxymethoxy-phenyl)-propyl]-{2-[(3,5-diamino-6-chloro-pyrazine-2-carbonyl)-amino]-ethyl}-dimethyl-ammonium trifluoroacetate]

More lines, now with the values behind:

SMILES	IC50 [nM]
C[N+](C)(CCCCNS(=O)(=O)c1ccc(Cl)cc1)CCNC(=O)c1nc(Cl)c(N)nc1N [Example 100, [4-(4-Chloro-benzenesulfonylamino)-butyl]-{2-[(3,5-diamino-6-chloro-pyrazine-2-carbonyl)-amino]-ethyl}-dimethyl-ammonium bromide]	290
C[N+](C)(CCNC(=O)c1nc(Cl)c(N)nc1N)CCNS(=O)(=O)Cc1ccc(Cl)cc1 [Example 108, [2-(4-Chloro-phenylmethanesulfonylamino)-ethyl]-{2-[(3,5-diamino-6-chloro-pyrazine-2-carbonyl)-amino]-ethyl}-dimethyl-ammonium bromide]	540
C[N+](CCCc1ccc(O)cc1)(CCCc1ccc(O)cc1)CCNC(=O)c1nc(Cl)c(N)nc1N [Example 122, {2-[(3,5-Diamino-6-chloro-pyrazine-2-carbonyl)-amino]-ethyl}-bis-[3-(4-hydroxy-phenyl)-propyl]-methyl-ammonium trifluoroacetate]	130
CCC[C@@H](CNC(=O)c1nc(Cl)c(N)nc1N)[N+](C)(C)CCCc1ccc(OC[C@@H](O)CO)cc1 [Example 124, ((S)-1-{[(3,5-Diamino-6-chloro-pyrazine-2-carbonyl)-amino]-methyl}-butyl)-{3-[4-((S)-2,3-dihydroxy-propoxy)-phenyl]-propyl}-dimethyl-ammonium trifluoroacetate]	25
C[N+](C)(CCCc1ccc(OCC(O)CO)cc1)CCNC(=O)c1nc(Cl)c(N)nc1N (stereo not drawn) [Example 126, {2-[(3,5-Diamino-6-chloro-pyrazine-2-carbonyl)-amino]-ethyl}-{3-[4-(2,3-dihydroxy-propoxy)-phenyl]-propyl-dimethyl-ammonium trifluoroacetate]	2270
C[N+](C)(CCNC(=O)c1nc(Cl)c(N)nc1N)CCc1ccccc1 [Example 129, {2-[(3,5-Diamino-6-chloro-pyrazine-2-carbonyl)-amino]-ethyl}-dimethyl-phenethyl-ammonium trifluoroacetate]	1140
C[N+](C)(C)CCNC(=O)c1nc(Cl)c(N)nc1N [Example 130, {2-[(3,5-Diamino-6-chloro-pyrazine-2-carbonyl)-amino]-ethyl}-trimethyl-ammonium iodide]	5810
COC(=O)COc1ccc(CCC[N+](C)(C)CCNC(=O)c2nc(Cl)c(N)nc2N)cc1 [Example 132, {2-[(3,5-Diamino-6-chloro-pyrazine-2-carbonyl)-amino]-ethyl}-[3-(4-methoxycarbonylmethoxy-phenyl)-propyl]-dimethyl-ammonium trifluoroacetate]	1490

— patent publication US8236808B2, “Pyrazine derivatives as ENAC blockers” (Novartis AG, priority 2008, dated 2012)
